# Laboratory results as given in the supplement of paper PMC10307832.
# Compound: Cn1nnc2c(C(N)=O)ncn2c1=O [Temozolomide] + Cc1nc(Nc2ncc(C(=O)Nc3c(C)cccc3Cl)s2)cc(N2CCN(CCO)CC2)n1 [Dasatinib] (partner 0.075 µM)
# Assay: relative viability (nuclei count vs DMSO), 5 days (fraction); higher = more cells survive
# Details: first compound 0.2 µM
# Summary of the method: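 Relative viability equals treated-well nuclei counts divided by vehicle-well nuclei counts. Counts came from 4× images of lung cancer cell lines grown in 1536-well plates for 5 days after pin-tool dosing on the day after seeding. Dosing used one drug alone or a fixed anchor-drug dose plus five library-drug doses (not always all listed) in √10 steps, and values are medians of duplicate plates.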
row,Cell Line,relative viability
1,NCI-H650,0.504
2,NCI-H661,0.781
3,NCI-H838,0.28
4,NCI-H1355,0.713
5,NCI-H1437,0.388
6,NCI-H1650,0.356
7,NCI-H1651,0.418
8,NCI-H1666,0.859
9,NCI-H1734,0.482
10,NCI-H1755,0.439
11,NCI-H1915,0.348
12,NCI-H1975,0.466
13,NCI-H1993,0.528
14,NCI-H2009,0.316
15,NCI-H2023,0.64
16,NCI-H2085,0.22
17,NCI-H2087,0.909
18,NCI-H2126,0.634
19,NCI-H2228,0.577
20,NCI-H2347,0.328
21,NCI-H2405,0.214
22,NCI-H3122,0.931
23,PC-3 [JPC-3],0.825
24,PC-14,0.216

# Same assay, conditions: first compound 0.6325 µM
row,Cell Line,relative viability
1,LU99A,0.489
2,LXF-289,0.228
3,NCI-H23,0.898
4,NCI-H322M,0.275
5,NCI-H441,0.621
6,NCI-H460,0.547
7,NCI-H520,0.212
8,NCI-H596,0.697
9,NCI-H647,0.22
10,NCI-H650,0.46
11,NCI-H661,0.953
12,NCI-H838,0.253
13,NCI-H1355,0.732
14,NCI-H1437,0.438
15,NCI-H1650,0.329
16,NCI-H1651,0.464
17,NCI-H1666,0.821

row,Cell Line,relative viability
1,NCI-H1734,0.471
2,NCI-H1755,0.418
3,NCI-H1915,0.328
4,NCI-H1975,0.365
5,NCI-H1993,0.603
6,NCI-H2009,0.299
7,NCI-H2023,0.56
8,NCI-H2085,0.293
9,NCI-H2087,0.97
10,NCI-H2126,0.664
11,NCI-H2228,0.637
12,NCI-H2347,0.329
13,NCI-H2405,0.222
14,NCI-H3122,0.803
15,PC-3 [JPC-3],0.987
16,PC-14,0.317

# Same assay, conditions: first compound 2 µM
row,Cell Line,relative viability
1,LU99A,0.6
2,LXF-289,0.192
3,NCI-H23,0.768
4,NCI-H322M,0.274
5,NCI-H441,0.682
6,NCI-H460,0.556
7,NCI-H520,0.207
8,NCI-H596,0.614
9,NCI-H647,0.303
10,NCI-H650,0.532
11,NCI-H661,0.962
12,NCI-H838,0.426
13,NCI-H1355,0.828
14,NCI-H1437,0.45
15,NCI-H1650,0.343
16,NCI-H1651,0.377
17,NCI-H1666,0.728

row,Cell Line,relative viability
1,NCI-H1734,0.396
2,NCI-H1755,0.427
3,NCI-H1915,0.288
4,NCI-H1975,0.413
5,NCI-H1993,0.524
6,NCI-H2009,0.404
7,NCI-H2023,0.616
8,NCI-H2085,0.282
9,NCI-H2087,1.02
10,NCI-H2126,0.678
11,NCI-H2228,0.516
12,NCI-H2347,0.298
13,NCI-H2405,0.254
14,NCI-H3122,0.886
15,PC-3 [JPC-3],1.07
16,PC-14,0.318

# Same assay, conditions: first compound 6.325 µM
row,Cell Line,relative viability
1,LU99A,0.524
2,LXF-289,0.18
3,NCI-H23,0.744
4,NCI-H322M,0.256
5,NCI-H441,0.608
6,NCI-H460,0.417
7,NCI-H520,0.185
8,NCI-H596,0.461
9,NCI-H647,0.117
10,NCI-H650,0.395
11,NCI-H661,0.762
12,NCI-H838,0.311
13,NCI-H1355,0.699
14,NCI-H1437,0.4
15,NCI-H1650,0.318
16,NCI-H1651,0.356
17,NCI-H1666,0.571

row,Cell Line,relative viability
1,NCI-H1734,0.482
2,NCI-H1755,0.395
3,NCI-H1915,0.215
4,NCI-H1975,0.361
5,NCI-H1993,0.661
6,NCI-H2009,0.306
7,NCI-H2023,0.572
8,NCI-H2085,0.262
9,NCI-H2087,0.734
10,NCI-H2126,0.61
11,NCI-H2228,0.463
12,NCI-H2347,0.303
13,NCI-H2405,0.199
14,NCI-H3122,0.812
15,PC-3 [JPC-3],1.02
16,PC-14,0.257

# Same assay, conditions: first compound 20 µM
row,Cell Line,relative viability
1,LU99A,0.548
2,LXF-289,0.252
3,NCI-H23,0.861
4,NCI-H322M,0.218
5,NCI-H441,0.724
6,NCI-H460,0.486
7,NCI-H520,0.235
8,NCI-H596,0.564
9,NCI-H647,0.111
10,NCI-H650,0.43
11,NCI-H661,0.706
12,NCI-H838,0.281
13,NCI-H1355,0.818
14,NCI-H1437,0.393
15,NCI-H1650,0.28
16,NCI-H1651,0.529
17,NCI-H1666,0.56

row,Cell Line,relative viability
1,NCI-H1734,0.464
2,NCI-H1755,0.473
3,NCI-H1915,0.198
4,NCI-H1975,0.462
5,NCI-H1993,0.6
6,NCI-H2009,0.326
7,NCI-H2023,0.6
8,NCI-H2085,0.218
9,NCI-H2087,0.882
10,NCI-H2126,0.641
11,NCI-H2228,0.44
12,NCI-H2347,0.282
13,NCI-H2405,0.21
14,NCI-H3122,0.828
15,PC-3 [JPC-3],0.438
16,PC-14,0.0365
